Source: PubChem BioAssay (NCI)
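96-well plates; 48 h exposure; 5 concentrations. Endpoints by linear interpolation between flanking doses. Not reached: highest tested concentration assigned. Definition used: TGI = concentration required for complete inhibition of growth.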

Experiments:
Test in all cases: growth of human tumour cells (NCI), 48 h
CCRF-CEM leukemia = tested on: CCRF-CEM leukemia
SK-MEL-5 melanoma = tested on: SK-MEL-5 melanoma
SK-MEL-28 melanoma = tested on: SK-MEL-28 melanoma
T-47D breast = tested on: T-47D breast
PC-3 prostate = tested on: PC-3 prostate
HCT-15 colon = tested on: HCT-15 colon
A549 NSCLC = tested on: A549 NSCLC
SNB-75 CNS = tested on: SNB-75 CNS
K-562 leukemia = tested on: K-562 leukemia
LOX IMVI melanoma = tested on: LOX IMVI melanoma
HCC-2998 colon = tested on: HCC-2998 colon
RPMI-8226 leukemia = tested on: RPMI-8226 leukemia
OVCAR-4 ovarian = tested on: OVCAR-4 ovarian
MCF7 breast = tested on: MCF7 breast
NCI-H226 lung = tested on: NCI-H226 lung
UACC-257 melanoma = tested on: UACC-257 melanoma
SK-OV-3 ovarian = tested on: SK-OV-3 ovarian
SK-MEL-2 melanoma = tested on: SK-MEL-2 melanoma
UACC-62 melanoma = tested on: UACC-62 melanoma
NCI-H460 lung = tested on: NCI-H460 lung
SNB-19 CNS = tested on: SNB-19 CNS
SF-268 CNS = tested on: SF-268 CNS
HOP-92 NSCLC = tested on: HOP-92 NSCLC
ACHN renal = tested on: ACHN renal
NCI-H522 lung = tested on: NCI-H522 lung
SF-295 CNS = tested on: SF-295 CNS
SF-539 CNS = tested on: SF-539 CNS
MDA-N = tested on: MDA-N
HL-60(TB) leukemia = tested on: HL-60(TB) leukemia
NCI/ADR-RES ovarian = tested on: NCI/ADR-RES ovarian
MDA-MB-435 = tested on: MDA-MB-435
DU-145 prostate = tested on: DU-145 prostate
SR leukemia = tested on: SR leukemia
OVCAR-8 ovarian = tested on: OVCAR-8 ovarian
EKVX NSCLC = tested on: EKVX NSCLC
HOP-62 NSCLC = tested on: HOP-62 NSCLC
OVCAR-3 ovarian = tested on: OVCAR-3 ovarian
HT29 colon = tested on: HT29 colon
RXF 393 renal = tested on: RXF 393 renal
COLO 205 colon = tested on: COLO 205 colon
BT-549 breast = tested on: BT-549 breast
U251 CNS = tested on: U251 CNS
SW-620 colon = tested on: SW-620 colon
KM12 colon = tested on: KM12 colon
MOLT-4 leukemia = tested on: MOLT-4 leukemia
786-0 renal = tested on: 786-0 renal
OVCAR-5 ovarian = tested on: OVCAR-5 ovarian
UO-31 renal = tested on: UO-31 renal
HCT-116 colon = tested on: HCT-116 colon
NCI-H23 lung = tested on: NCI-H23 lung
HS 578T breast = tested on: HS 578T breast
CAKI-1 renal = tested on: CAKI-1 renal
A498 renal = tested on: A498 renal
MDA-MB-231 breast = tested on: MDA-MB-231 breast
SN12C renal = tested on: SN12C renal
TK-10 renal = tested on: TK-10 renal
M14 melanoma = tested on: M14 melanoma
IGROV1 ovarian = tested on: IGROV1 ovarian

In the case of `Cc1csc(-c2cn(C)c3c2C(=O)C(N)=CC3=O)n1`, the TGI (CCRF-CEM leukemia) is reported as over 100 µM, the TGI (SK-MEL-5 melanoma) is reported as 3.27 µM and the TGI (SK-MEL-28 melanoma) is reported as over 100 µM. For the same molecule, the TGI (T-47D breast) was over 100 µM, the TGI (PC-3 prostate) was over 100 µM and the TGI (HCT-15 colon) was over 100 µM. The TGI (A549 NSCLC) was 8.76 µM, the TGI (SNB-75 CNS) was 6.48 µM and the TGI (K-562 leukemia) was over 100 µM. The TGI (LOX IMVI melanoma) was over 100 µM, the TGI (HCC-2998 colon) was over 100 µM and the TGI (RPMI-8226 leukemia) was over 22.8 µM. For the same molecule, the TGI (OVCAR-4 ovarian) was over 100 µM, the TGI (MCF7 breast) was over 100 µM and the TGI (NCI-H226 lung) was over 80.1 µM. For the same molecule, the TGI (UACC-257 melanoma) was 32.6 µM, the TGI (SK-OV-3 ovarian) was over 100 µM and the TGI (SK-MEL-2 melanoma) was over 82.7 µM. It also gave a TGI (UACC-62 melanoma) of 26.3 µM, a TGI (NCI-H460 lung) of 15.9 µM and a TGI (SNB-19 CNS) of over 100 µM. The TGI (SF-268 CNS) was over 100 µM, the TGI (HOP-92 NSCLC) was over 100 µM and the TGI (ACHN renal) was over 52.1 µM. It also gave a TGI (NCI-H522 lung) of over 100 µM, a TGI (SF-295 CNS) of 20.8 µM and a TGI (SF-539 CNS) of over 100 µM. It also gave a TGI (MDA-N) of 45.2 µM, a TGI (HL-60(TB) leukemia) of 14.8 µM and a TGI (NCI/ADR-RES ovarian) of over 100 µM. It also gave a TGI (MDA-MB-435) of 15.3 µM, a TGI (DU-145 prostate) of over 100 µM and a TGI (SR leukemia) of 19.5 µM. The TGI (OVCAR-8 ovarian) was over 100 µM, the TGI (EKVX NSCLC) was over 100 µM and the TGI (HOP-62 NSCLC) was 98.5 µM. The TGI (OVCAR-3 ovarian) was over 67.3 µM, the TGI (HT29 colon) was over 67.1 µM and the TGI (RXF 393 renal) was over 100 µM. It also gave a TGI (COLO 205 colon) of over 100 µM, a TGI (BT-549 breast) of over 100 µM and a TGI (U251 CNS) of over 100 µM. For the same molecule, the TGI (SW-620 colon) was over 100 µM, the TGI (KM12 colon) was over 100 µM and the TGI (MOLT-4 leukemia) was over 27.9 µM. For the same molecule, the TGI (786-0 renal) was over 100 µM, the TGI (OVCAR-5 ovarian) was over 100 µM and the TGI (UO-31 renal) was over 100 µM. For the same molecule, the TGI (HCT-116 colon) was over 100 µM, the TGI (NCI-H23 lung) was over 30 µM and the TGI (HS 578T breast) was over 80.2 µM. It also gave a TGI (CAKI-1 renal) of over 64.4 µM, a TGI (A498 renal) of over 100 µM and a TGI (MDA-MB-231 breast) of over 100 µM. For the same molecule, the TGI (SN12C renal) was over 100 µM, the TGI (TK-10 renal) was over 100 µM and the TGI (M14 melanoma) was over 47.4 µM. For the same molecule, the TGI (IGROV1 ovarian) was 13.4 µM.
